Data as given in US3992446A, “Substituted aminochlorobenzylamino guanidine compounds” (American Cyanamid Company, priority 1975, dated 1976).
Where a name gives a salt, the structure may show the parent alone. Read-outs that look alike come from different tables or passages of the source.

What was measured:
Type in all cases: in vivo
Eimeria tenella = test: anticoccidial activity against Eimeria tenella in inoculated Peterson Cross Cockerels, medicated diet, survival; details: 168 h; for responders at 120 µg/mL: 120 parts per million in diet; for responders at 15 µg/mL: 15 parts per million in diet; for responders at 20 µg/mL: 20 parts per million in diet
From the text: (§1) For example, these compounds have anticoccidial activity against Eimeria tenella as shown by the following test: The animals were Peterson Cross Cockerels, 7 days old and of approximately equal size and weight. These cockerels were divided into groups and the groups were placed in separate cages with wire floors. Medicated and control diets were then presented to the groups of birds 2 days before inoculation while they were still in uncontaminated quarters. During the entire period of the tests, the birds ate and drank ad libitum. Control groups were maintained on a standard unmedicated commercial type chicken diet. Test groups were maintained on the same standard diet in which a measured concentration of test compound had been incorporated homogeneously. The cockerels were inoculated once orally with sporulated oocysts of Eimeria tenella. The number of oocysts inoculated directly into the crops of all cockerels in the tests was sufficient to produce high mortality in the untreated controls. […] Seven days following inoculation the tests were terminated and the mortality rate was recorded for each group. […] The tests represent very severe laboratory challenges, and lower concentrations than those shown would be effective under practical field conditions.

coccidia = test: anti-coccidial activity, comparison with prior art compounds of Lieber et al.
E. acervulina = test: anticoccidial activity against E. acervulina in chickens (survival, weight gain)
From the text: as §1
(§2) The compounds of the present invention have high activity against other coccidial species in chickens. […] Methods used were essentially identical with those previously cited with appropriate modifications. Weight gains were determined 7 days after single experimental inoculations with the designated species of coccidia.

E. brunetti = test: anticoccidial activity against E. brunetti in chickens (survival, weight gain); details: for % Survival / Weight gain: brunetti; for Weight gain: 7 days after inoculation
From the text: as §1, §2

Eimeria necatrix = test: anticoccidial activity against Eimeria necatrix in chickens (survival, weight gain); details: for % Survival / Weight gain: necatrix; for Weight gain: 7 days after inoculation
From the text: as §1, §2

E. maxima = test: anticoccidial activity against E. maxima in chickens (survival, weight gain); details: for % Survival / Weight gain: maxima; for Weight gain: 7 days after inoculation
From the text: as §1, §2

E. mivati = test: anticoccidial activity against E. mivati in chickens (survival, weight gain); details: for % Survival / Weight gain: mivati; for Weight gain: 7 days after inoculation
From the text: as §1, §2

[1] = 30 parts per million in diet, 7 days after inoculation, read-out: % Survival
[2] = 10 parts per million in diet, 7 days after inoculation, read-out: % Survival

## N=C(NN=Cc1ccc(Cl)c(Cl)c1)NN=Cc1ccc(Cl)c(Cl)c1 [1,3-Bis(3,4-dichlorobenzylideneamino)guanidine Nitrate]
Eimeria tenella; read-out: % Survival
  responders at 60 µg/mL: 100%

## N=C(NN=Cc1ccc(Br)cc1)NN=Cc1ccc(Br)cc1.O=[N+]([O-])O [1,3-Bis(4-bromobenzylideneamino)guanidine Nitrate]
Eimeria tenella; read-out: % Survival
  responders at 17 µg/mL: 80%
  responders at 35 µg/mL: 95%
coccidia; dosage 17 parts per million
  Activity (anti-coccidial): active

## CN(N=Cc1ccc(Cl)cc1)C(=N)N(C)N=Cc1ccc(Cl)cc1 [1,3-Bis(4-chlorobenzylideneamino)-1,3-dimethylguanidine hydrobromide]
Eimeria tenella; [1]
  responders at 30 µg/mL: 100%
Eimeria tenella; 7 days after inoculation
  responders at 120 µg/mL: 100%

## N=C(NN=Cc1ccc(Cl)cc1)NN=Cc1ccc(Cl)cc1.O=[N+]([O-])O [1,3-Bis(4-chlorobenzylideneamino)guanidine nitrate]
Eimeria tenella; read-out: % Survival
  responders at 18 µg/mL: 77%
  responders at 36 µg/mL: 96%
  responders at 54 µg/mL: 100%
coccidia; dosage 18 parts per million
  Activity (anti-coccidial): active
E. acervulina; acervulina, 45 ppm in diet
  % Survival: 100%
E. acervulina; acervulina, 45 ppm in diet, 7 days after inoculation
  Weight gain: 99 % control

## N=C(NN=Cc1ccc(Cl)cc1)NN=Cc1ccc(Cl)cc1 [1,3-Bis(4-chlorobenzylideneamino)guanidine]
E. acervulina; treated chickens
  protection from poor weight gains due to E. acervulina: completely protected
E. brunetti; treated chickens
  protection from poor weight gains due to E. brunetti: completely protected
Eimeria necatrix; treated chickens
  protection from mortality due to Eimeria necatrix: completely protected
E. maxima; treated chickens
  protection from poor weight gains due to E. maxima: completely protected
E. mivati; treated chickens
  protection from poor weight gains due to E. mivati: completely protected

## N#Cc1ccc(C=NNC(=N)NN=Cc2ccc(C#N)cc2)cc1 [1,3-Bis(4-cyanobenzylideneamino)guanidine Nitrate]
Eimeria tenella; read-out: % Survival
  responders at 30 µg/mL: 80%
  responders at 60 µg/mL: 100%

## N=C(NN=Cc1ccc(F)cc1)NN=Cc1ccc(F)cc1 [1,3-Bis(4-fluorobenzylideneamino)guanidine Nitrate]
Eimeria tenella; read-out: % Survival
  responders at 93 µg/mL: 80%

## Cl.N=C(NN=Cc1ccc(I)cc1)NN=Cc1ccc(I)cc1 [1,3-Bis(4-iodobenzylideneamino)guanidine Hydrochloride]
Eimeria tenella; [1]
  responders at 30 µg/mL: 55%
coccidia; dosage 30 parts per million
  Activity (anti-coccidial): active

## N=C(NN=Cc1ccc(C(F)(F)F)cc1)NN=Cc1ccc(C(F)(F)F)cc1 [1,3-Bis(4-trifluoromethylbenzylideneamino)guanidine hydrochloride]
Eimeria tenella; 7 days after inoculation
  responders at 120 µg/mL: 100%

## N=C(NN=Cc1ccc(OC(F)(F)F)cc1)NN=Cc1ccc(OC(F)(F)F)cc1 [1,3-bis(4-Trifluoromethoxybenzylideneamino)guanidine Hydrochloride]
Eimeria tenella; read-out: % Survival
  responders at 5 µg/mL: 80%
  responders at 10 µg/mL: 100%

## N=C(NNCc1ccc(Cl)cc1)NNCc1ccc(Cl)cc1 [1,3-bis(4-chlorobenzylamino)guanidine]
Eimeria tenella; [2]
  responders at 10 µg/mL: 90%
Eimeria tenella; 7 days after inoculation
  responders at 15 µg/mL: 90%
  responders at 20 µg/mL: 100%

## Cl.N=C(NN=Cc1ccc(Cl)cc1)NN=Cc1ccc(Cl)cc1 [1,3-bis(4-chlorobenzylideneamino)-guanidine hydrochloride]
Eimeria tenella; read-out: % Survival
  responders at 8.5 µg/mL: 45%
  responders at 17 µg/mL: 75%
  responders at 33 µg/mL: 100%
coccidia; dosage 8.5 parts per million
  Activity (anti-coccidial): active
E. brunetti; 15 ppm in diet
  % Survival: 100%
  Weight gain: 100 % control
E. brunetti; 30 ppm in diet
  % Survival: 100%
  Weight gain: 95 % control
E. maxima; 15 ppm in diet
  % Survival: 100%
  Weight gain: 101 % control
E. maxima; 30 ppm in diet
  % Survival: 100%
  Weight gain: 95 % control
E. maxima; 45 ppm in diet
  % Survival: 100%
  Weight gain: 100 % control
E. mivati; 15 ppm in diet
  % Survival: 100%
  Weight gain: 86 % control
E. mivati; 30 ppm in diet
  % Survival: 100%
  Weight gain: 91 % control
E. mivati; 45 ppm in diet
  % Survival: 100%
  Weight gain: 100 % control

## N=C(NN=Cc1ccc(Cl)cc1)NN=Cc1ccc(Cl)cc1 [1,3-bis(4-chlorobenzylideneamino)guanidine methosulfate]
Eimeria tenella; 7 days after inoculation
  responders at 20 µg/mL: 59%
Eimeria tenella; 40 parts per million in diet, 7 days after inoculation
  responders at 40 µg/mL: 90%
Eimeria tenella; 60 parts per million in diet, 7 days after inoculation, read-out: % Survival
  responders at 60 µg/mL: 98%
coccidia; dosage 20 parts per million
  Activity (anti-coccidial): active
Eimeria necatrix; 15 ppm in diet
  % Survival: 100%
  Weight gain: 80 % control
Eimeria necatrix; 30 ppm in diet
  % Survival: 100%
  Weight gain: 103 % control

## N=C(NN=Cc1ccc(Cl)cc1)NNCc1ccc(Cl)cc1 [1-(4-Chlorobenzylamino)-3-(4-chlorobenzylideneamino)guanidine]
Eimeria tenella; 7 days after inoculation
  responders at 15 µg/mL: 90%
Eimeria tenella; [1]
  responders at 30 µg/mL: 100%

## CC(=O)N=C(NN=Cc1ccc(Cl)cc1)NN=Cc1ccc(Cl)cc1 [2-acetyl-1,3-bis(4-chlorobenzylideneamino)guanidine]
Eimeria tenella; 5 parts per million in diet, 7 days after inoculation, read-out: % Survival
  responders at 5 µg/mL: 67%
Eimeria tenella; [2]
  responders at 10 µg/mL: 95%
Eimeria tenella; [1]
  responders at 30 µg/mL: 100%

## O=Cc1ccc2c(c1)OCO2 [9) piperonal, reference compound]
coccidia; dosage 125 parts per million
  Activity (anti-coccidial): inactive

## O=Cc1ccccc1O [11) salicylaldehyde, reference compound]
coccidia; dosage 125 parts per million
  Activity (anti-coccidial): inactive

## O=Cc1ccccc1O [12) salicylaldehyde, reference compound]
coccidia; dosage 200 parts per million
  Activity (anti-coccidial): inactive

## CC(=O)c1ccccc1 [14) acetophenone, reference compound]
coccidia; dosage 250 parts per million
  Activity (anti-coccidial): inactive
